Test results taken from US20250332176A1, “TREATMENT FOR FIBROSIS AND INHIBITION OF FIBROSIS” (GALMED RESEARCH AND DEVELOPMENT LTD, priority 2022, published 2025).
Values joined by “and” are separate entries in the source; they are usually repeats but may differ in a detail not shown here. Equal entries are not always repeated. “Also recorded” adds a separate entry of the source.

What was measured:
[1] = system: pts with pre-diabetes or diabetes and biopsy-proven NASH; experiment: Global phase 2b randomized placebo-controlled ARREST trial, one-year results; assay type: in vivo, human
Method: Overweight/obese pts with pre-diabetes or diabetes and biopsy-proven NASH (with NAS≥4; F<4) were included. Liver biopsy and liver fat measurement by MR spectroscopy (LF-MRS) were performed at baseline and week 52. Both read centrally. The primary endpoint was the absolute change from baseline in LF-MRS (600 mg vs. placebo, PLB; mixed model repeated measures). Key secondary endpoints included: NASH resolution without fibrosis worsening, ≥1 stage fibrosis reduction without NASH worsening and ALT reduction. 247 pts from 11 countries (US, Europe, Latin America) were randomized 2:2:1 to Aramchol™ 400 mg QD (N=101), 600 mg QD (N=98) or PLB (N=48). At baseline: 65% females, mean age 54.4 yrs, BMI 32.7 kg/m2, HbA1c 6.6%±1.0% (mean±SD), LF-MRS 28.5%±11.7% (mean±SD); 60% fibrosis stage 2-3 and NAS 5.12±1.00 (mean±SD). 89% of pts completed the study. The results of the study are summarized in FIGS. 16A-16B to FIGS.-20A-20B.

[2] = system: LX-2 human hepatic stellate cells; experiment: Inhibition of collagen synthesis in stellate cells (COL1A1, PPARγ expression, collagen production); assay type: cell-based
Method: LX2 cells (150.000 cells per well) were plated in DMEM media containing antibiotics, glutamine and bovine fetal serum. After 24 hours incubation, media was changed to 0% serum and incubated for an additional period of 16 hours. Then, Aramchol™ (10 mM) was added and 24 hours later RNA was extracted with Trizol.

[3] = system: LX-2, a human hepatic stellate cell line; experiment: Mechanistic study in hepatic stellate cells (qPCR, Western, RNAseq, GSEA); assay type: cell-based; conditions: Aramchol 10 μM
Method: Serum-starved LX2 cells were treated with Aramchol™ (10 μM) for 24 or 48 hours. Fibrogenic gene expression and SCD-1 protein expression were measured by qPCR and Western, respectively. RNAseq was performed at 24 and 48 h in duplicate. Differential gene expression was assessed with DSeq2, while gene set enrichment analysis (GSEA) and gene ontology (GO) analyses assessed functionality of gene expression changes. Primary hepatocytes from C57BL/6 mice were harvested by perfusion and treated with Aramchol™ ([…]) for 48 hours in culture. PPAR γ mRNA expression was measured by qPCR.

[4] = Phase 2 ARAMCHOL 003 repeat dose plasma exposure in patients; assay type: in vivo, human; conditions: for AUC/Dose / Relative bioavailability (AUC/Dose normalized to 30 mg HV data) / AUC at 84 day: patients; for AUC/Dose / Relative bioavailability (AUC/Dose normalized to 30 mg HV data): D84; for AUC at 84 day: human, plasma, oral
Method: (§1) Table 1 summarizes the reported plasma exposure from three studies-single dose Phase I in healthy volunteers (30-900 mg, AUC=AUCinf); Phase II ARAMCHOL™ 003 repeat dose study (AUC on D84 from 100 & 300 mg QD), Phase IIb Cmin on D84 (400 and 600 mg QD).
Exposure in patients is also sub-proportional from 100 to 300 mg. […] This may be due to the use of a tablet formulation in the patient study versus the powder/suspension in healthy volunteers or may simply reflect a high degree of inter-subject variability (typically exposure CV is >50% within a study group).

[5] = Phase 1 single dose plasma exposure in healthy volunteers; assay type: in vivo, human; conditions: for AUC: human, plasma, oral, AUC=AUCinf
Method: as §1
Biovailability relative to 30 […] has been calculated as (AUC/Dose)/(AUC/30 mg) and is plotted for this group in FIG. 11.

human NAFLD = experiment: 3-month phase 2a human NAFLD study; assay type: in vivo
0.1MCD-fed mice = experiment: 0.1% methionine- and choline-deficient (0.1MCD) diet mouse model of NASH; assay type: in vivo
Excerpt: The study described below investigates the mechanism of action of Aramchol™ and its potential effect on fibrosis using the 0.1% methionine- and choline-deficient (0.1MCD) diet mouse model of NASH.
C57BI/6 were fed the Methionine and Choline Deficient (MCD) and control diet and were sacrificed after 4 weeks. The MCD diet induces aminotransferase elevation and changes in hepatic histological features, characterized by steatosis, local inflammation, hepatocyte necrosis and fibrosis. These changes occur rapidly and are morphologically similar to those observed in human NASH. In this study the MCD diet contained 0.1% methionine to minimize and stabilize weight loss. At the end of the second week, after verification of established NASH, 0.1MCD-fed mice were treated orally by gavage with Aramchol™ (5 mg/Kg/day) or vehicle (n=10, each condition). Control diet-fed mice were also treated with vehicle for same duration (n=10). At the end of the experiment, blood and liver samples were obtained. A diagram of the experimental design is shown below: […]

[6] = 5 mg/Kg/day orally by gavage from end of second week to week 4
[7] = 5 mg/Kg/day orally by gavage, liver

AUC/Dose ([4]; 100 mg QD repeat dose): 197 ng/mL · h/(mg/kg)
Relative bioavailability (AUC/Dose normalized to 30 mg HV data) ([4]; 100 mg QD repeat dose): 0.50
steady-state AUC in patients lower than AUCinf from a single dose in healthy volunteers ([4]; 300 mg): approximately 2 fold
AUC/Dose ([4]; 300 mg QD repeat dose): 110 ng/mL · h/(mg/kg)
Relative bioavailability (AUC/Dose normalized to 30 mg HV data) ([4]; 300 mg QD repeat dose): 0.28
AUC at 84 day ([4]; 100 mg QD repeat dose, AUC on D84): 19.7 µg·h/mL
AUC at 84 day ([4]; 300 mg QD repeat dose, AUC on D84 (steady-state)): 33 µg·h/mL
exposure CV within a study group ([4]; typically, inter-subject variability): > 50%
exposure (AUC) of single 900 mg dose higher than single 300 mg dose [5]: 1.35 fold
decrease in AUC/Dose across the dose range ([5]; 30-900 mg): four-fold
AUC ([5]; single dose 30 mg): 11.9 µg·h/mL
AUC ([5]; single dose 100 mg): 25.7 µg·h/mL
AUC ([5]; single dose 300 mg): 64.3 µg·h/mL
AUC ([5]; single dose 900 mg): 86.9 µg·h/mL
AUC/Dose ([5]; single dose 30 mg): 397 ng/mL · h/(mg/kg)
Relative bioavailability (AUC/Dose normalized to 30 mg HV data) ([5]; single dose 30 mg): 1
AUC/Dose ([5]; single dose 100 mg): 257 ng/mL · h/(mg/kg)
Relative bioavailability (AUC/Dose normalized to 30 mg HV data) ([5]; single dose 100 mg): 0.65
AUC/Dose ([5]; single dose 300 mg): 214 ng/mL · h/(mg/kg)
Relative bioavailability (AUC/Dose normalized to 30 mg HV data) ([5]; single dose 300 mg): 0.53 and 0.54
AUC/Dose ([5]; single dose 900 mg): 97 ng/mL · h/(mg/kg)
Relative bioavailability (AUC/Dose normalized to 30 mg HV data) ([5]; single dose 900 mg): 0.24
SMILES: CCCCCCCCCCCCCCCCCCCC(=O)N[C@H]1CC[C@@]2(C)[C@@H](C1)C[C@@H](O)[C@@H]1[C@@H]2C[C@H](O)[C@]2(C)[C@@H]([C@H](C)CCC(=O)O)CC[C@@H]12 [Aramchol™, 3β-arachidylamido-7α, 12α-dihydroxy-5β-cholan-24-oic acid]
pts progressed to cirrhosis ([1]; 400 mg QD, week 52): 7.5%
pts with ≥5% absolute reduction in liver fat ([1]; 400 mg QD, week 52): 37%
liver fat by MR spectroscopy (LF-MRS), absolute change from baseline vs PLB ([1]; 400 mg QD, week 52, p=0.045): significantly reduced
effect on ballooning (improvement ≥1 point; ballooning 0 at end of study) ([1]; 600 mg): statistically significant effect
pts progressed to cirrhosis ([1]; 600 mg QD, week 52): 1.3%
liver fat by MR spectroscopy (LF-MRS), absolute change from baseline vs PLB ([1]; 600 mg QD, week 52, p<0.066): significantly reduced
pts with NASH resolution without fibrosis worsening ([1]; 600 mg QD, week 52, vs 5.0% PLB): 16.7%
pts with ≥1 stage fibrosis reduction without NASH worsening ([1]; 600 mg QD, week 52, vs 17.5% PLB (p=0.21)): 29.5%
pts with ≥5% absolute reduction in liver fat ([1]; 600 mg QD, week 52, vs 24% on PLB (p<0.028)): 47%
OR for NASH resolution without fibrosis worsening vs PLB ([1]; 600 mg QD, 95% CI: 0.99-22.66, p=0.051): 4.74
Discontinuation due to adverse events (AE) ([1]; 1-year treatment): < 5%
serious AE, pts ([1]; 1-year treatment, without a difference between arms): 10%
ALT vs PLB ([1]; both doses (400 mg and 600 mg QD), p<0.001, dose response): significantly reduced
HbA1c vs PLB ([1]; both doses (400 mg and 600 mg QD), p<0.007, dose response): significantly reduced
AST vs PLB ([1]; both doses (400 mg and 600 mg QD), p=0.002, dose response): significantly reduced
safety and tolerability ([1]; one year): excellent safety and tolerability
COL1A1 expression ([2]; Aramchol 10 mM, 24 hours, RNA): significantly reduced
PPARγ expression ([2]; Aramchol 10 mM, 24 hours, RNA): up-regulation
collagen production ([2]; relative to a DMSO control): significantly down regulates
cholesterol biosynthesis (Gene Set Enrichment Analysis) ([3]; 24 or 48 hours): downregulates
collagen formation (Gene Set Enrichment Analysis) ([3]; 24 or 48 hours): downregulates
PPARγ mRNA (RT-PCR) ([3]; 24 or 48 hours, serum-starved): upregulates
SCD-1 mRNA (RT-PCR) ([3]; 24 or 48 hours, serum-starved): downregulates
fibrogenic genes (RT-PCR) ([3]; 24 or 48 hours, serum-starved): downregulates
SCD-1 protein (Western Blot, densitometry) ([3]; 24 or 48 hrs): downregulates
PPARγ mRNA (RNASeq) ([3]; 48 hrs): upregulation
cholesterol efflux regulatory protein ABCA1 (RNASeq) ([3]; 48 hrs): upregulated
fibrogenic genes and SCD-1 mRNA (RNASeq) ([3]; 48 hrs): downregulation; also recorded: downregulates
hepatic fat (human NAFLD): reduced
hepatic content of diglycerides (DG) and TG (0.1MCD-fed mice; 5 mg/Kg/day orally by gavage): reduction
GSH/GSSG ratio (0.1MCD-fed mice; [6]): elevates; also recorded: normalization
collagen in the liver (liver extract) (0.1MCD-fed mice; [6]): significantly down regulates
fibrosis in the liver (sirius red) (0.1MCD-fed mice; [6]): significantly down regulates/normalizes
glutathione in liver (0.1MCD-fed mice; [6]): significantly up regulates
infiltration and activation status of macrophages in the liver (F4/80, CD64) (0.1MCD-fed mice; [6]): significantly down regulates/normalizes
steatosis in the liver (Sudan III) (0.1MCD-fed mice; [6]): significantly down regulates
FA(16:1)/FA(16:0) ratio (0.1MCD-fed mice; [7]): marked decrease
SCD1 activity (0.1MCD-fed mice; [7]): reduced
SCD1 expression (0.1MCD-fed mice; [7]): marked decrease
content of total oxFA including oxLA (0.1MCD-fed mice; [7]): marked reduction
total content of monounsaturated FA (MUFA) (0.1MCD-fed mice; [7]): marked decrease
